Source: PMC12265377, “CC48 a new CB2R agonist/FAAH inhibitor dual drug blocks gastric cancer progression and overcomes paclitaxel resistance” (Journal of Experimental & Clinical Cancer Research : CR, 2025)
Where two headings read alike, the source gives them in different places.

Columns and labels:
Type in all cases: cell-based, human
NCI-N87 cells [1] = assay: MTT cytotoxicity assay; conditions: read-out: Cytotoxic activity IC50±SEM
HGC27-R cells [2] = assay: Muse Ki67 cell proliferation assay; conditions: for percentage of Ki67+ cells: combined with PTX (10 µM compound; 6 µM AM630)
From the text: (§1) After the specified drug treatments, the cells were processed with the Muse Ki67 cell proliferation kit, which identified actively proliferating cells based on the expression of Ki67, a nuclear protein present in the active phases of the cell cycle (G1, S, G2, and M phases) and absent in the resting G0 phase. The Muse Ki67 Proliferation Assay was used with the Guava Muse Cell Analyzer according to the manufacturer’s instructions (Luminex Corporation, Austin, USA). Briefly, the cells were stained after fixation and permeabilization procedures, using Hu Ki67 or Hu IgG1 control fluorochrome-conjugated antibodies to distinguish Ki67(+) or Ki67(-) cells, respectively. The software provided the percentage of both Ki67(+) and Ki67(-) cells.

[3] = test system: HGC27-S/R and AGS cell lines; assay: Autophagy assay (western blot of autophagy proteins); conditions: 48 h, 1 and 10 µM (AM630 1 and 6 µM)
Method: Cells were rinsed with ice-cold lysis buffer (50 mM Tris,10 mM EDTA, 1% v/v Triton-X100), supplemented with protease inhibitor cocktail set III (80 µM aprotinin, 5 mM bestatin, 1.5 mM leupeptin, 1 mM pepstatin; Sigma-Merck, St. Louis, MO), 2 mM phenylmethyl sulfonyl fluoride and 1 mM Na3VO4, then sonicated and centrifuged at 13,000 g for 10 min at 4 °C. 20 µg protein extracts were subjected to SDS-PAGE and probed with the following antibodies: anti-ATG5 (#ab108327, diluted 1:1000), anti-ATG7 (#ab52472, diluted 1:5000), anti-ATG12 (#ab303488, diluted 1:1000), anti-Beclin (#ab210498, diluted 1:1000), anti-p62 (#ab109012, diluted 1:10000), anti-LC3 (#ab192890, diluted 1:2000)(all from Abcam, Cambridge, UK) or anti-β-tubulin antibody (#sc-5274, diluted 1:1000; Santa Cruz Biotechnology Inc.,Santa Cruz, CA, USA), followed by incubation with a peroxidase conjugated secondary antibody (Bio-Rad Laboratories, Hercules, CA). After washing in Tris-buffered saline (TBS)-Tween 0.1% v/v solution, proteins were detected by enhanced chemiluminescence (Bio-Rad Laboratories).Total protein expression was quantified using the ImageJ software (http://rsb.info.nih.gov/ij/). The expression level of each of the investigated protein was normalized to the β-tubulin level.

AGS cells = assay: Migration (scratch) assay; conditions: scratch assay 24 h, 6 µM AM630, 10 µM others
Method: (§2) HGC27-S/R and AGS cells were grown until confluence. A scratch wound was generated with a pipette tip. […] Photographs were taken of each well immediately (T0) and at various times, T1 (9 h), T2 (24 h), and T3 (48 h), using a Leica DMRXA camera (Leica Microsystems, Milan, Italy). The images were analyzed using ImageJ Software (http://rsb.info.nih.gov/ij/). The distance that cells migrated through the scratch area was determined by measuring the wound width at T1, T2 and T3 and subtracting it from the wound width at the start (T0). The relative migration rate was calculated by setting the percentage of migration of the control cells at time T2 equal to 1 and comparing the percentage of migration of the cells after each drug treatment to this value. The results are representative of three independent experiments.

HGC27-R cells [4] = assay: Migration (scratch) assay; conditions: scratch assay 24 h, highest concentration
Method: as §2

HGC27-S cells [5] = assay: Migration (scratch) assay; conditions: scratch assay 24 h, 6 µM AM630, 10 µM others
Method: as §2

HGC27-S cells [6] = assay: Western blot of proliferation pathway proteins; conditions: 48 h, 6 µM AM630, 10 µM agonists
Method: Western Blotting analysis was performed as previously described in both HGC27-S/R and AGS cells. Briefly, for each experimental condition the cells were lysed in ice-cold lysis buffer (50 mM Tris, 10 mM EDTA, 1% v/v Triton-X100), supplemented with the protease/phosphatase inhibitor cocktail set (Merck KGaA, Darmstadt, Germany), incubated on ice for 15 min and centrifuged at 13,000 × g for 15 min at 4 °C. Protein extracts were quantified by Micro BCA™ Protein Assay Kit (Thermo Fisher Scientific Inc., MA USA) and 40 µg of total protein extract was loaded on SDS-PAGE and immunoblotted with the following antibodies: CB1R and CB2R (1:500, rabbit polyclonal, Abcam, Cambridge, UK), P-TSC2 (Ser939) and TSC2 (1:1000Cell Signaling, Beverly, MA, USA), PI3K (1:1000Cell Signaling, Beverly, MA, USA), P-P70 (Thr389) and P70 (1:1000Cell Signaling, Beverly, MA, USA), P-Akt (Ser473 Thr308) and Akt (1:1000Cell Signaling, Beverly, MA, USA), P-S6 (Ser235/236) and S6 (1:1000Cell Signaling, Beverly, MA, USA), 4EBP1(1:1000Cell Signaling, Beverly, MA, USA), P-ERK(Thr202/Tyr204) and ERK (1:1000Cell Signaling, Beverly, MA, USA), PPRγ (1:1000Cell Signaling, Beverly, MA, USA), Phospho-SAPK/JNK (Thr183/Tyr185) and JNK2 (1:1000 Cell Signaling, Beverly, MA, USA), Phospho-c-Jun (Ser63) and c-Jun (1:1000 Cell Signaling, Beverly, MA, USA), caspase 3/7 (1:1000 Cell Signaling, Beverly, MA, USA), Phospho-βcatenin (Ser675) and βcatenin (1:1000 Cell Signaling, Beverly, MA, USA), vimentin (1:1000Cell Signaling, Beverly, MA, USA), P-cofillin (Ser3) and cofillin (1:1000Cell Signaling, Beverly, MA, USA), actin (1:4000Cell Signaling, Beverly, MA, USA). Subsequently, the membranes were incubated with the corresponding horseradish peroxidase (HRP)-conjugated secondary antibodies (Bio-Rad, Hercules, CA, USA). An enhanced chemiluminescence kit (Bio-Rad, Hercules, CA, USA) was used. […] Total protein expression was quantified using the ImageJ software (http://rsb.info.nih.gov/ij/). […]

NCI-N87 cells [7] = assay: Muse Ki67 cell proliferation assay
From the text: as §1

[8] = NCI-N87, single treatment (10 µM compound; 2 nM PTX), control 78.2%
[9] = representative flow cytometry chart, 48 h, 10 µM CC48, PTX, single or combined as labelled

Row | SMILES | IC50 (NCI-N87 cells [1]; 48h) | IC50 (NCI-N87 cells [1]; 72h) | percentage of Ki67+ cells (HGC27-R cells [2]) | expression of autophagy proteins (ATG5, ATG7, ATG12, Beclin-1, p62, LC3-II) [3] | relative migration rate (untreated cells = 1) (AGS cells) | relative migration rate (control cells = 1) (HGC27-R cells [4]) | relative migration rate (untreated cells = 1) (HGC27-S cells [5]) | expression/activation of PI3K/Akt/mTOR and ERK1/2 pathway proteins (western blot) (HGC27-S cells [6]) | percentage of Ki67+ cells (NCI-N87 cells [7]; [8]) | IC50 (NCI-N87 cells [1]; Homo sapiens, 48h) | IC50 (NCI-N87 cells [1]; Homo sapiens, 72h) | Ki67(+) cells (HGC27-R cells [2]; [9]) | Ki67(-) cells (HGC27-R cells [2]; [9]) | percentage of Ki67+ cells (NCI-N87 cells [7]; NCI-N87, cotreatment with PTX, PTX alone 68.1%)
1 | COc1ccc(C(=O)c2c(C)n(CCN3CCOCC3)c3cc(I)ccc23)cc1 [AM630, reference compound] | 22.7 µM | 15.6 ± 0.26 µM | 51.3% | dose-dependent increase of autophagic proteins | 0.7 | 0.2 | 0.6 | significant decrease in PI3K protein expression |  |  |  |  |  | 
2 | CCCCCNc1ccccc1C(=O)NC12CC3CC(CC(C3)C1)C2 [ASF151] | 33.1 µM | 29.3 ± 3.84 µM |  | less potent inducer of some autophagy-related proteins |  |  |  | no effect was detected | 68.3% |  |  |  |  | 
3 | O=C(NC12CC3CC(CC(C3)C1)C2)c1ccccc1OCc1ccccc1 [CC48] |  |  | 67.9% |  | 0.8 | 0.76 | 0.6 | significant decrease in PI3K protein expression | 60.9% | 15.1 µM | 9.42 ± 0.22 µM | 84.00% | 16.00% | 59.9%
